From patent publication US20100267561A1, “HERBICIDAL PYRIDAZINONE DERIVATIVES” (priority 2007, published 2010)

Columns and labels:
Type in all cases: in vivo
[1] = system: blackgrass (Alopecurus myosuroides); assay: Test C pre-/postemergence plant response; conditions: Preemergence
In short: (§1)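 Visual rating vs untreated controls, 0 (no effect) to 100 (complete control), after 15–25 days in a controlled growth environment. Pre- and postemergence treatments; post plants at 1- to 4-leaf stage, 2–18 cm. Formulation: non-phytotoxic solvent mix plus surfactant.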

[2] = system: winter wheat (Triticum aestivum); assay: Test C pre-/postemergence plant response; conditions: Preemergence
In short: as §1

[3] = system: canarygrass (Phalaris minor); assay: Test C pre-/postemergence plant response; conditions: Preemergence
In short: as §1

[4] = system: downy bromegrass (Bromus tectorum); assay: Test C pre-/postemergence plant response; conditions: Preemergence
In short: as §1

[5] = system: green foxtail (Setaria viridis); assay: Test C pre-/postemergence plant response; conditions: Preemergence
In short: as §1

wild oat (Avena fatua) = assay: Test C pre-/postemergence plant response; conditions: Preemergence
In short: as §1

[6] = system: spring barley (Hordeum vulgare); assay: Test C pre-/postemergence plant response; conditions: Preemergence
In short: as §1

[7] = system: annual bluegrass (Poa annua); assay: Test C pre-/postemergence plant response; conditions: Preemergence
In short: as §1

[8] = system: pigweed (Amaranthus retroflexus); assay: Test C pre-/postemergence plant response; conditions: Preemergence
In short: as §1

[9] = system: wild mustard (Sinapis arvensis); assay: Test C pre-/postemergence plant response; conditions: Preemergence
In short: as §1

[10] = system: windgrass (Apera spica-venti); assay: Test C pre-/postemergence plant response; conditions: Preemergence
In short: as §1

[11] = system: johnsongrass (Sorghum halepense); assay: Test B pre-/postemergence plant response; conditions: for Johnsongrass plant response rating: 8 g ai/ha
In short: (§2)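 Seeds were sown and sprayed preemergence, while plants at 2 to 18 cm (1- to 4-leaf stage) got postemergence sprays. Compounds were formulated in a non-phytotoxic solvent mixture with surfactant. After 13 to 15 days in a greenhouse, injury was rated visually against untreated controls, 0 (no effect) to 100 (complete control).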

[12] = system: surinam grass (Brachiaria decumbens); assay: Test B pre-/postemergence plant response; conditions: for Surinam Grass plant response rating: 8 g ai/ha
In short: as §2

[13] = 8 g ai/ha, scale 0 to 100 (0 no effect, 100 complete control)
[14] = 16 g ai/ha, scale 0 to 100 (0 no effect, 100 complete control)
[15] = 31 g ai/ha, scale 0 to 100 (0 no effect, 100 complete control)
[16] = 62 g ai/ha, scale 0 to 100, 0 no effect, 100 complete control
[17] = Postemergence, 16 g ai/ha, scale 0 to 100
[18] = Postemergence, 31 g ai/ha, scale 0 to 100
[19] = Postemergence, 62 g ai/ha, scale 0 to 100, 0 no effect, 100 complete control
[20] = Preemergence, 16 g ai/ha, scale 0 to 100 (0 no effect, 100 complete control)

Structure (SMILES): Cc1cc(-c2ccc(Cl)cc2)nn1-c1c(OC(=O)c2ccccc2)cnn(C)c1=O [Compound 48]
- Plant response rating, Blackgrass [1, 13]: 35
- Plant response rating, Blackgrass [1, 14]: 50
- Plant response rating, Blackgrass [1, 15]: 65
- Plant response rating, Blackgrass [1, 16]: 98
- Plant response rating, Wheat, Winter [2, 13]: 0
- Plant response rating, Wheat, Winter [2, 14]: 0
- Plant response rating, Wheat, Winter [2, 15]: 20
- Plant response rating, Wheat, Winter [2, 16]: 70
- Plant response rating, Canarygrass [3, 13]: 0
- Plant response rating, Canarygrass [3, 14]: 0
- Plant response rating, Canarygrass [3, 15]: 85
- Plant response rating, Canarygrass [3, 16]: 95
- Plant response rating, Bromegrass, Downy [4, 13]: 0
- Plant response rating, Bromegrass, Downy [4, 14]: 0
- Plant response rating, Bromegrass, Downy [4, 15]: 0
- Plant response rating, Bromegrass, Downy [4, 16]: 40
- Plant response rating, Foxtail, Green [5, 13]: 35
- Plant response rating, Foxtail, Green [5, 14]: 95
- Plant response rating, Foxtail, Green [5, 15]: 100
- Plant response rating, Foxtail, Green [5, 16]: 100
- Plant response rating, Oat, Wild (wild oat (Avena fatua); [13]): 0
- Plant response rating, Oat, Wild (wild oat (Avena fatua); [14]): 0
- Plant response rating, Oat, Wild (wild oat (Avena fatua); [15]): 50
- Plant response rating, Oat, Wild (wild oat (Avena fatua); [16]): 70
- Plant response rating, Barley, Spring [6, 13]: 0
- Plant response rating, Barley, Spring [6, 14]: 15
- Plant response rating, Barley, Spring [6, 15]: 30
- Plant response rating, Barley, Spring [6, 16]: 80
- Plant response rating, Bluegrass [7, 13]: 0
- Plant response rating, Bluegrass [7, 14]: 0
- Plant response rating, Bluegrass [7, 15]: 0
- Plant response rating, Bluegrass [7, 16]: 0
- Plant response rating, Pigweed [8, 13]: 0
- Plant response rating, Pigweed [8, 14]: 0
- Plant response rating, Pigweed [8, 15]: 0
- Plant response rating, Pigweed [8, 16]: 0
- Plant response rating, Mustard, Wild [9, 15]: 0
- Plant response rating, Mustard, Wild [9, 16]: 0
- Plant response rating, Windgrass [10, 13]: 0
- Plant response rating, Windgrass [10, 14]: 0
- Plant response rating, Windgrass [10, 15]: 35
- Plant response rating, Windgrass [10, 16]: 80
- Johnsongrass plant response rating ([11]; postemergence, 0-100 scale): 65
- Plant response rating, Johnsongrass [11, 17]: 75
- Plant response rating, Johnsongrass [11, 18]: 100
- Plant response rating, Johnsongrass [11, 19]: 100
- Plant response rating, Johnsongrass [11, 20]: 60
- Plant response rating, Johnsongrass ([11]; Preemergence, 31 g ai/ha, 0 to 100 scale, 0 no effect, 100 complete control): 75
- Plant response rating, Johnsongrass ([11]; Preemergence, 62 g ai/ha, scale 0 to 100): 80
- Johnsongrass plant response rating ([11]; Preemergence, scale 0 to 100): 40
- Surinam Grass plant response rating ([12]; postemergence, 0-100 scale): 75
- Plant response rating, Surinam Grass [12, 17]: 90
- Plant response rating, Surinam Grass [12, 18]: 100
- Plant response rating, Surinam Grass [12, 19]: 100
- Plant response rating, Surinam Grass [12, 20]: 40
- Plant response rating, Surinam Grass ([12]; Preemergence, 31 g ai/ha, scale 0 to 100 (0 no effect, 100 complete control)): 65
- Plant response rating, Surinam Grass ([12]; Preemergence, 62 g ai/ha, 0 to 100 scale, 0 no effect, 100 complete control): 75
- Surinam Grass plant response rating ([12]; Preemergence, scale 0 to 100): 0
